Measurements: patent publication US8183275B2, “Substituted imidazoles as bombesin receptor subtype-3 modulators” (Merck Sharp & Dohme Corp., priority 2006, dated 2012)

These molecules were tested against T1, human BRS-3 (Homo sapiens, UniProt P32247) (assay: Bombesin Receptor Subtype 3 (BRS3) binding assay (radioligand filtration)). Settings: BRS-3 Receptor Binding Activity for Selected Compounds.
T1 construct: expressed in transfected cells
T1 sequence (P32247 1-399): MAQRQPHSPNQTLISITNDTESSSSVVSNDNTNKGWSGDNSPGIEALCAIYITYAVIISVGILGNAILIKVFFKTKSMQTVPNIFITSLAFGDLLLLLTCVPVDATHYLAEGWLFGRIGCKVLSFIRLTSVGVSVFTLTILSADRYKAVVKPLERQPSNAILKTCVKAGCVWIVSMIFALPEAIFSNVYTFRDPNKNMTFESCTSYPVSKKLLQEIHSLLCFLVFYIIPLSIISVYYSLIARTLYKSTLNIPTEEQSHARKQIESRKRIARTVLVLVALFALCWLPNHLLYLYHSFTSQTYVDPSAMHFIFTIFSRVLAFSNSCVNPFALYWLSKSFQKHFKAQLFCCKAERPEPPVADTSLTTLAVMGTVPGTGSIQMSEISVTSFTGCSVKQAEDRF
Procedure: Dissociated cells were collected by centrifuging at 1000 rpm for 10 minutes. Cell pellets were resuspended and homogenized at 4° C. using a Polytron homogenizer (setting 40, 20 stokes) in approximately 10 mL membrane preparation buffer (10 mM Tris pH 7.4, 0.01 mM Pefabloc, 10 μM phosphoramidon and 40 μg/mL Bacitracin) per T175 flask. After centrifugation at 2200 rpm (1000×g) for 10 minutes at 4° C., the supernatant was transferred to a clean centrifuge tube and spun at 18,000 rpm (38,742×g) for 15 minutes. at 4° C. […]
The radioligand, [^3H]-1-{4-[(4,5-difluoro-2-hydroxycarbonylphenyl)phenyl])-2-(4-cyclohexylmethyl-1H-imidazol-2-yl)ethane, was used for binding to receptor membranes generated with BRS3 from other species and was also utilized for the human receptor. […] After incubation for 1-2 hours at room temperature, membrane bound [^3H]-biphenyl was separated from free radiologand by filtering through GF/C filters presoaked in 1% PEI solution. The filters were washed five times with ice-cold washing buffer (50 mM Tris pH 7.4, 10 mM MgCl2, 2.5 mM EDTA and 0.02% Triton X-100). The radioactivity was determined by adding 30 μl of microscintillant/well after each plate was dried at room temperature overnight or placed at 50° C. for 1 hr.
A Packard Top Count was used to read the filter plates. The data in % inhibition of binding was plotted vs. the log molar concentration of receptor ligand (compound). The IC50 was reported as the inflection point of the resulting sigmoidal curve.

IC50 [nM]	SMILES
38	CC(C)(C)Cc1cnc(CCc2ccc(-c3ccccc3C(=O)O)cc2)[nH]1 [Example 1, 4′-{2-[4-(2,2-Dimethylpropyl)-1H-imidazol-2-yl]ethyl}biphenyl-2-carboxylic Acid]
117	O=C(O)c1ccccc1-c1ccc(CCc2ncc(CC3CCCC3)[nH]2)cc1 [Example 26]
20	O=C(O)c1cc(F)c(F)cc1-c1ccc(CCc2nc(CC3CCCCC3)c[nH]2)cc1 [Example 94]
6.3	CCC(C)(C)Cc1c[nH]c(CCc2ccc(-c3cccc(C)n3)cc2)n1 [Example 110]
33	CCC(C)(C)Cc1c[nH]c(CCc2ccc(-n3cccn3)cc2)n1 [Example 205, 1-(4-{2-[4-(2,2-dimethylbutyl)-1H-imidazol-2-yl]ethyl}phenyl)-1H-pyrazole]
4.8	CCC(C)(C)Cc1c[nH]c(CCc2ccc(-c3cccc4cn[nH]c34)cc2)n1 [Example 221]
18	CCC(C)(C)Cc1c[nH]c(CCc2ccc(N3CCCC[C@@H]3C(=O)O)cc2)n1 [Example 225, (R)-N-(4-{2-[4-(2,2-Dimethylbutyl)-1H-imidazol-2-yl]ethyl}phenyl)piperidine-2-carboxylic acid]
18	CCC(C)(C)Cc1c[nH]c(CCc2ccc(N3CCCc4cn[nH]c43)cc2)n1 [Example 226, 7-(4-{2-[5-(2,2-Dimethylbutyl)-1H-imidazol-2-yl]ethyl}phenyl)-4,5,6,7-tetrahydro-1H-pyrazolo[3,4-b]pyridine]
2.8	CCC(C)(C)Cc1c[nH]c(CCc2ccc(C3CCCCC3C(=O)O)cc2)n1 (stereo not shown) [Example 227, 2-(4-{2-[4-(2,2-Dimethylbutyl)-1H-imidazol-2-yl]ethyl}phenyl)cyclohexanecarboxylic acid]
25	CC(C)(Cc1cnc(CCc2ccc(-c3ccc(F)cn3)cc2)[nH]1)C1CC1 [Example 236, 2-(4-{2-[5-(2-Cyclopropyl-2-methylpropyl)-1H-imidazol-2-yl]ethyl}phenyl)-5-fluoropyridine]
15	CCC(CF)(CF)Cc1cnc(CCc2ccc(-c3ccc(F)cn3)cc2)[nH]1 [Example 237, 2-(4-{2-[5-(2,2-Bis(fluoromethyl)butyl)-1H-imidazol-2-yl]ethyl}phenyl)-5-fluoro-pyridine]
116	CC(C)(C)Cc1cnc(CCc2ccc(-c3ccccn3)cc2)[nH]1 [Example 240, 2-(4-{2-[4-(2,2-Dimethylpropyl)-1H-imidazol-2-yl]ethyl}phenyl)pyridine]
5.3	CCC(C)(C)Cc1c[nH]c(CCc2ccc(-c3ccccc3OCc3nn[nH]n3)cc2)n1 [Example 246, 5-(4′-{2-[4-(2,2-Dimethylbutyl)-1H-imidazol-2-yl]ethyl}biphenyl-2-yloxymethyl)-1H-tetrazole]
